System: co-culture of HLA-A2 positive monocytes and HLA-A2 negative HUVECs
Experiment: Co-culture of PBMC-derived monocytes with HUVECs: endothelial incorporation of monocyte-derived EC-like cells (flow cytometry, HLA-A2)
Assay type: cell-based, human
Details: day 3; for proportion of HLA-A2 positive cells of the total cell population: no apoA-I control about 15%; for endothelial incorporation of HLA-A2 positive monocyte-derived endothelial-like cells into the HUVECs layer (effect in words): apoA-I 0.25, 0.5 and 2.0 mg/ml
Method: Human umbilical vein ECs (HUVEC) were isolated from human umbilical veins using collagenase digestion. Briefly, umbilical cords from normal or caesarean deliveries are collected and perfused with Ca^2+ and Mg^2+-free phosphate buffer saline (PBS). HUVECs were removed by short treatment at 37° C. with collagenase solution (0.1% in PBS with Ca^2+ and Mg^2+). HUVECS were cultured and expanded for use in investigation at no later than passage 4. Cells were grown under standard culture conditions of 37° C. in a 95% air/5% CO2 atmosphere in M199 media (Cell Applications or Invitrogen Australia) supplemented with 10% foetal bovine serum (FBS; Trace Bioscience, or Invitrogen Australia) or with 10% heat-inactivated human serum and with a D-glucose concentration of 5.0 mM. The human serum was obtained from healthy donors within 7 days of the experiment. The human serum was filtered with 0.22 μm PES membrane (Millipore) and heat inactivated at 56° C. for 30 minutes.
The ECs were screened for human leucocyte antigen-A2 type (HLA-A2) expression with direct immunofluorescence and flow cytometry (Beckman Coulter). The batches of HUVEC cells that were HLA-A2 negative were used in these investigations. Alternatively, batches of HACECs that are HLA-A2 negative are used in these investigations. The batches of HLA-A2 negative HUVECs preferably at second passage were grown to approximately 75% sub-confluence on 6-wells cell culture plates (Becton Dickinson Labware, growth area 9.6 cms^2 per well) at a density varying from 10,000 to 500,000 cells per well 24 hours before the co-culture. Usually a density of 500,000 cells per well is needed to achieve a fully confluent layer of HUVECS. Alternatively, batches of HLA-A2 negative HCAECs preferably at second passage are grown to approximately 75% sub-confluence on 6-wells cell culture plates (Bectin Dickinson Labware).
Fresh peripheral blood mononuclear cells (PBMCs) were obtained from venous blood of healthy HLA-A2 positive donors (n=5) by gradient centrifugation on Lymphoprep in a hypertonic medium (Lymphoprep™) and immediately seeded onto HUVECs. Alternatively, the PBMCs are immediately seeded onto HCAECs layers at densities ranging from 0.25 to 2×10^6 cells per well. […] The co-cultured cell layer containing HUVECs were detached at multiple time points between day 0 and day 6 by addition of 20 μl of detachment solution containing 0.12% trypsin and analyzed by direct immunofluoresence and flow cytometry inter alia for expression of cell surface markers. […]
Expression of cell surface markers was analyzed by two-colors direct immunofluoresence and flow cytometry (Cytomics FC500, Beckman Coulter). […]

apolipoprotein A-I [apoA-I]
proportion of HLA-A2 positive cells of the total cell population (0.5 mg/ml apoA-I in co-culture, t test P<0.01): about 33% | proportion of HLA-A2 positive cells of the total cell population (2.0 mg/ml apoA-I in co-culture): about 37% | endothelial incorporation of HLA-A2 positive monocyte-derived endothelial-like cells into the HUVECs layer (effect in words): dose dependent increase | endothelial incorporation of HLA-A2 positive monocyte-derived endothelial-like cells into the HUVECs layer (effect in words) (listed as ApoA-I): increased endothelial incorporation
